Assay results: patent US6660910B1, “Selection marker” (Syngenta Mogen B.V., priority 1997, dated 2003)

System: callus derived from scutellum of mature embryos of Oryza sativa cv. Taipei 309
Test: Rice callus transformation (Agrobacterium) with cyanamide selection
Type: cell-based
Details: for Calli able to regenerate: 15 mg/l cyanamide
Description: Described below is the method used for transformation of callus derived from scutellum of mature embryos of Oryza sativa cv. Taipei 309 using Agrobacterium tumefaciens strain LBA1119-pMOG1295 (harboring the cah-gene) and strain LBA1119-pMOG1253 (control). Sterile dehusked rice seeds were germinated on plates containing Callus Induction Medium (CIM) in the dark at 28° C. (The contents of various media can be found in Table 5). After 3 weeks embryogenic callus derived from the scutellum is isolated and subcultured on the same medium under the same conditions. After 2-3 weeks embryogenic calli were cut in segments of approximately 2-3 mm and cultured plates containing CIM for 4 days. The Agrobacterium strains used in this study harbored a rifampicin selection marker in a C 58 chromosomal background. The construction of the helper strain EHA105 is described by Hood et al. (1993). Agrobacteria were grown for 4 days on plates containing AB medium with antibiotics (rifampicin 20 mg/l, kanamycin 100 mg/l ). Agrobacteria were collected in LIM and the OD600 was adjusted till 1.0-1.5. This suspension was used for cocultivation. Calli were incubated for 10 minutes with the Agrobacterium suspension and dried on sterile filter paper to remove excess of bacteria. Calli were cultured for 48 h on Coculture Medium (COM) plates at 25° C. in the dark. 50 pMOG1295 calli and 20 pMOG1253 calli were cultured per concentration of cyanamid. The following concentrations of cyanamide were used: 0, 15, 30, 60, 100, 150, 200, 300 and 500 mg/l. Hygromycin was applied in a concentration of 50 mg/l. Calli were incubated on First Selection Medium (FSM) plates containing several concentrations of cyanamide or hygromycin at 28° C. in the dark. After 3 weeks the calli were transferred to Embryo Induction Medium I (EIM I) containing the same concentration of cyanamide or hygromycin . After another 3 weeks the calli were subcultured on Embryo Induction Medium II (EIM II) containing the same concentration of cyanamide or an increased concentration of hygromycin (75 mg/l). Calli were transferred to Shoot Induction Medium (SIM) containing the same concentration of cyanamide as during FSM, EIM I, EIM II and were cultured under 12 hours light period (2600 LUX) and 12 hours dark at 28 ° C. Approximately 3 weeks after transferring calli to SIM, shoots were regenerating and excised and placed in jars containing Pre-Greenhouse Medium (PGM). […] At 15 mg/l cyanamide the regeneration frequency of callus from both constructs was the same (pMOG1253 7 out of 16 calli were able to regenerate, pMOG1295 17 out of 44).

[1] = pMOG1295, 30 mg/l cyanamide, 50 calli cultured

N#CN [Cyanamide]
Callus formation (cyanamide 100 mg/l or higher, pMOG1295 and pMOG1253 calli): No calli were formed | Calli able to regenerate (pMOG1253 (control)): 7 out of 16 | Calli able to regenerate (pMOG1295 (cah-gene)): 17 out of 44 | Calli able to be regenerated [1]: 6 | Calli showing green callus development [1]: 11
